Measured values published in patent US20240166693A1, “METHODS AND COMPOUNDS FOR MODULATING MYOTONIC DYSTROPY 1” (Design Therapeutics, Inc., priority 2020, published 2024).

Tested on: Myotonic Dystrophy 1 affected patient fibroblasts (Coriell GM04602; 1600 CTG repeats)
Assay: DM1 foci reduction assay (CAG10-Cy3 FISH, average foci per nucleus)
Type: cell-based
Conditions: Homo sapiens, Fibroblast, 48 h, read-out: Foci Reduction in Fibroblast EC50, 48 h (nM)
Method: DM1 foci reduction assay methods: Myotonic Dystrophy 1 affected patient fibroblasts (Coriell GM04602; 1600 CTG repeats) and wild type fibroblasts (Coriell GM07492; control line) were cultured separately in Gibco DMEM (1×)+4.5 g/L D-Glucose+L-Glutamine+110 mg/L Sodium Pyruvate, supplemented with 10% FBS and 1× Pen/Strep. Cells were maintained in incubator at 37° C. and 5% CO2 with media refresh every 48-72 hours.
At 90-95% confluency, both cell lines were harvested using Trypl-E then pelleted at 500×g for 5 minutes and were resuspended in media. DM1 fibroblasts were seeded in Agilent 96 well black plates at a density of 5,000 cells/well in 200 μL media; 8 wells were reserved for control fibroblasts. Plates were returned to incubator for 24 hours at 37° C. and 5% CO2.
Compounds were diluted from 10 mM stock to 1 mM in DMSO, then diluted once more to 6 μM (2× concentration) in media. Media was removed from all plates and cells were replenished with 100 μL media. Cells were treated in 8-point dose response, 1:3 fold dilution, 3 μM top dose via addition of 100 μL of 6 μM (2× concentration) compound to the 100 μL media with cells. Plates were returned to incubator for 48-hour time-course experiment at 37° C. and 5% CO2.
Following treatment, compounds were removed, and plates were washed with PBS, then cells were fixed in 75 μL 4% PFA solution for 20 minutes at room temperature. Plates were washed twice with PBS and twice with cold 70% ethanol before permeabilization with 250 μL cold 70% ethanol for 24-72 hours at −20° C.
After permeabilization, plates were washed once with a 30% formamide and 2×SSC buffer and rehydrated in that buffer for 15 minutes at room temperature. Cells were incubated overnight at 37° C. in 75 μL of a hybridization solution containing 30% formamide, 2×SSC, 25 mg/mL dextran sulfate, 2.5 mg/mL BSA, 0.2 μg/mL Herring sperm DNA, 2 mM vanadyl-ribonucleoside complex, and 5 nM CAG10-Cy3 probe.
Plates were washed once with 30% formamide in 2×SSC buffer, then twice with the buffer for 30 minutes at 37° C., 300 RPM in an incubating plate shaker. Cells were stained with 75 μL of 2.5 μg/mL DAPI in PBS for 5 minutes at room temperature. Plates were then washed twice with PBS and stored in 250 μL PBS. Plates were sealed with adhesive foil and wiped down with 70% ethanol.
Cells were imaged on a Cytation5 with a 20× objective sampling from 4 areas of each well. Nuclei were captured under DAPI channel and foci under RFP channel. Plates were analyzed on an average foci per nucleus per well basis.

Question: How did the EC50 turn out when `CCN(CC)CCCC[C@H](NC(=O)[C@H](CC(C)C)NC(=O)[C@H](C)NC(=O)[C@H](Cc1ccccc1)NC(=O)c1ccc(C(C)(C)C)cc1)C(=O)N[C@@H](CO)C(=O)NCCOCCOCCOCCOCCOCCNC(=O)c1nc(NC(=O)CCNC(=O)c2cc(NC(=O)c3nc(NC(=O)[C@@H](CCNC(=O)c4cc(NC(=O)c5nc(NC(=O)c6cc(NC(=O)c7cccn7C)cn6C)cn5C)cn4C)NC(C)=O)cn3C)cn2C)cn1C` [Compound 109] was run?
Answer: > 500 nM

Question: Which EC50 does the source give for `CCN(CC)CCCC[C@H](NC(=O)[C@H](CC(C)C)NC(=O)[C@H](C)NC(=O)[C@H](Cc1ccccc1)NC(=O)c1ccc(C(C)(C)C)cc1)C(=O)N[C@@H](CO)C(=O)NCCOCCOCCOCCOCCOCCNC(=O)c1cc(NC(=O)c2nc(NC(=O)CCNC(=O)c3cc(NC(=O)c4nc(NC(=O)CCCNC(=O)c5cc(NC(=O)c6nc(NC(=O)CCNC(=O)c7cc(NC(=O)c8nccn8C)cn7C)cn6C)cn5C)cn4C)cn3C)cn2C)cn1C` [Compound 130] here?
Answer: < 100 nM

Question: Which EC50 does the source give for `CCN(CC)CCCC[C@H](NC(=O)[C@H](CC(C)C)NC(=O)[C@H](C)NC(=O)[C@H](Cc1ccccc1)NC(=O)c1ccc(C(C)(C)C)cc1)C(=O)N[C@@H](CO)C(=O)NCCOCCOCCOCCOCCOCCNC(=O)c1nc(NC(=O)CCNC(=O)c2cc(NC(=O)c3nc(NC(=O)CCCNC(=O)c4nc(NC(=O)c5nc(CC(=O)CCNC(=O)c6cc(NC(=O)c7nccn7C)cn6C)cn5C)cn4C)cn3C)cn2C)cn1C` [Compound 104] here?
Answer: > 500 nM

Question: Which EC50 does the source give for `CCN(CC)CCCC[C@H](NC(=O)[C@H](CC(C)C)NC(=O)[C@H](C)NC(=O)[C@H](Cc1ccccc1)NC(=O)c1ccc(C(C)(C)C)cc1)C(=O)N[C@@H](CO)C(=O)NCCOCCOCCOCCOCCOCCNC(=O)c1cc(NC(=O)c2nc(NC(=O)c3cc(NC(=O)[C@@H](N)CCNC(=O)c4nc(NC(=O)c5cc(NC(=O)c6cc(NC(=O)c7nccn7C)cn6C)cn5C)cn4C)cn3C)cn2C)cn1C` [Compound 57] here?
Answer: > 500 nM

Question: With `CCN(CC)CCCC[C@H](NC(=O)[C@H](CC(C)C)NC(=O)[C@H](C)NC(=O)[C@H](Cc1ccccc1)NC(=O)c1ccc(C(C)(C)C)cc1)C(=O)N[C@@H](CO)C(=O)NCCOCCOCCOCCOCCOCCNC(=O)c1cc(NC(=O)c2nc(NC(=O)c3cc(NC(=O)CCCNC(=O)c4nc(NC(=O)CCNC(=O)c5cc(NC(=O)c6nccn6C)cn5C)cn4C)cn3C)cn2C)cn1C` [Compound 115] as the molecule, how does the EC50 read?
Answer: > 500 nM

Question: For `CCN(CC)CCCC[C@H](NC(=O)[C@H](CC(C)C)NC(=O)[C@H](C)NC(=O)[C@H](Cc1ccccc1)NC(=O)c1ccc(C(C)(C)C)cc1)C(=O)N[C@@H](CO)C(=O)N1CCN(CCOCCOCCOCCOCCNC(=O)CCNC(=O)c2nc(NC(=O)c3cc(NC(=O)CCNC(=O)c4nc(NC(=O)CCCNC(=O)c5cc(NC(=O)c6nc(NC(=O)CCNC(=O)c7cc(NC(=O)c8nccn8C)cn7C)cn6C)cn5C)cn4C)cn3C)cn2C)CC1` [Compound 185], which EC50 is on record?
Answer: 100 to 500 nM

Question: Which EC50 does the source give for `CCN(CC)CCCC[C@H](NC(C)=O)C(=O)N[C@@H](CO)C(=O)NCCOCCOCCOCCOCCOCCNC(=O)CCNC(=O)c1nc(NC(=O)c2cc(NC(=O)CCCC(=O)c3nc(NC(=O)CCCNC(=O)c4cc(NC(=O)c5nc(NC(=O)CCNC(=O)c6cc(NC(=O)c7nccn7C)cn6C)cn5C)cn4C)cn3C)cn2C)cn1C` [Compound 65] here?
Answer: > 500 nM

Question: For `CCN(CC)CCCC[C@H](NC(=O)[C@H](CC(C)C)NC(=O)[C@H](C)NC(=O)[C@H](Cc1ccccc1)NC(=O)c1ccc(C(C)(C)C)cc1)C(=O)N[C@@H](CO)C(=O)NCCOCCOCCOCCOCCOCCOCCOCCOCCOCCOCCNC(=O)CCNC(=O)c1nc(NC(=O)c2cc(NC(=O)CCNC(=O)c3nc(NC(=O)CCCNC(=O)c4cc(NC(=O)c5nc(NC(=O)CCNC(=O)c6cc(NC(=O)c7nccn7C)cn6C)cn5C)cn4C)cn3C)cn2C)cn1C` [Compound 26], which EC50 is on record?
Answer: 100 to 500 nM

Question: `CCCNC(=O)c1cc(NC(=O)c2nc(NC(=O)CCNC(=O)c3cc(NC(=O)c4nc(NC(=O)[C@@H](CCNC(=O)c5cc(NC(=O)c6nc(NC(=O)CCNC(=O)c7cc(NC(=O)c8nccn8C)cn7C)cn6C)cn5C)NC(=O)COCCOCCOCCOCCOCCNC(=O)[C@H](CO)NC(=O)[C@H](CCCCN(CC)CC)NC(=O)[C@H](CC(C)C)NC(=O)[C@H](C)NC(=O)[C@H](Cc5ccccc5)NC(=O)c5ccc(C(C)(C)C)cc5)cn4C)cn3C)cn2C)cn1C` [Compound 133] was tested. Which EC50 did it give?
Answer: 100 to 500 nM

Question: With `CCN(CC)CCCC[C@H](NC(=O)[C@H](CC(C)C)NC(=O)[C@H](C)NC(=O)[C@H](Cc1ccccc1)NC(=O)c1ccc(C(C)(C)C)cc1)C(=O)N[C@@H](CO)C(=O)NCCOCCOCCOCCOCCOCCNC(=O)CCNC(=O)c1cc(NC(=O)c2nc(NC(=O)CCNC(=O)c3cc(NC(=O)c4nc(NC(=O)CCCNC(=O)c5cc(NC(=O)c6nc(NC(=O)CCNC(=O)c7cc(NC(=O)c8nccn8C)cn7C)cn6C)cn5C)cn4C)cn3C)cn2C)cn1C` [Compound 135] as the molecule, how does the EC50 read?
Answer: > 500 nM

Question: `CC(=O)N[C@@H](CCCCN(C)C1CC2CCC1C2)C(=O)N[C@@H](CO)C(=O)NCCOCCOCCOCCOCCOCCNC(=O)CCNC(=O)c1nc(NC(=O)c2cc(NC(=O)CCNC(=O)c3nc(NC(=O)CCCNC(=O)c4cc(NC(=O)c5nc(NC(=O)CCNC(=O)c6cc(NC(=O)c7nccn7C)cn6C)cn5C)cn4C)cn3C)cn2C)cn1C` (stereo partly shown) [Compound 67] was tested. Which EC50 did it give?
Answer: 100 to 500 nM

Question: `CCN(CC)CCCC[C@H](NC(=O)[C@H](CC(C)C)NC(=O)[C@H](C)NC(=O)[C@H](Cc1ccccc1)NC(=O)c1ccccc1C)C(=O)N[C@@H](CO)C(=O)NCCOCCOCCOCCOCCOCCNC(=O)c1cc(NC(=O)c2cc(NC(=O)c3nc(NC(=O)c4cc(NC(=O)[C@@H](N)CCNC(=O)c5nc(NC(=O)CCNC(=O)c6cc(NC(=O)c7nccn7C)cn6C)cn5C)cn4C)cn3C)cn2C)cn1C` [Compound 89] was tested. Which EC50 did it give?
Answer: > 500 nM

Question: For `CCN(CC)CCCC[C@H](NC(=O)[C@H](CC(C)C)NC(=O)[C@H](C)NC(=O)[C@H](Cc1ccccc1)NC(=O)c1ccc(C(C)(C)C)cc1)C(=O)N[C@@H](CO)C(=O)NCCOCCOCCOCCOCCN1CCN(C2CCN(C(=O)CCNC(=O)c3nc(NC(=O)c4cc(NC(=O)CCNC(=O)c5nc(NC(=O)CCCNC(=O)c6cc(NC(=O)c7nc(NC(=O)CCNC(=O)c8cc(NC(=O)c9nccn9C)cn8C)cn7C)cn6C)cn5C)cn4C)cn3C)CC2)CC1` [Compound 186], which EC50 is on record?
Answer: > 500 nM

Question: How did the EC50 turn out when `CC(C)C[C@H](NC(=O)[C@H](C)NC(=O)[C@H](Cc1ccccc1)NC(=O)c1ccc(C(C)(C)C)cc1)C(=O)N[C@@H](CCCCN(C)C1CC2CCC1C2)C(=O)N[C@@H](CO)C(=O)NCCOCCOCCOCCOCCOCCNC(=O)c1cc(NC(=O)c2cc(NC(=O)c3nc(NC(=O)c4cc(NC(=O)[C@@H](N)CCNC(=O)c5nc(NC(=O)CCNC(=O)c6cc(NC(=O)c7nccn7C)cn6C)cn5C)cn4C)cn3C)cn2C)cn1C` (stereo partly shown) [Compound 84] was run?
Answer: > 500 nM

Question: Which EC50 does the source give for `CCN(CC)CCCC[C@H](NC(=O)[C@H](CC(C)C)NC(=O)[C@H](C)NC(=O)[C@H](Cc1ccccc1)NC(=O)c1ccc(C(C)(C)C)cc1)C(=O)N[C@@H](CO)C(=O)N1CCC(C#CC#CC2CCN(CCOCCOCCOCCNC(=O)CCNC(=O)c3nc(NC(=O)c4cc(NC(=O)CCNC(=O)c5nc(NC(=O)CCCNC(=O)c6cc(NC(=O)c7nc(NC(=O)CCNC(=O)c8cc(NC(=O)c9nccn9C)cn8C)cn7C)cn6C)cn5C)cn4C)cn3C)CC2)CC1` [Compound 180] here?
Answer: < 100 nM

Same assay, conditions: Homo sapiens, Fibroblast; DM1 fibroblasts, 48 h treatment, 8-point dose response, 3 μM top dose; read-out: Foci Reduction in Fibroblast EC50, 48 h

Question: With `Cn1cc(NC(=O)c2nc(NC(=O)CCNC(=O)c3cc(NC(=O)c4nccn4C)cn3C)cn2C)cc1C(=O)NCCCC(=O)Nc1cn(C)c(C(=O)NCCC(=O)Nc2cc(C(=O)Nc3cn(C)c(C(=O)NCCC(=O)NCCOCCOCCOCCOCCOCCOCCn4cc(CC(=O)Nc5ccc(C(=O)Nc6ccccc6N)cc5)nn4)n3)n(C)c2)n1` [Compound 124] as the molecule, how does the EC50 read?
Answer: > 500 nM

Question: For `CCCCCCNc1nc(NC2CCN(CCOCCOCCOCCOCCOCCOCCOCCOCCOCCOCCNC(=O)CCNC(=O)c3nc(NC(=O)c4cc(NC(=O)CCNC(=O)c5nc(NC(=O)CCCNC(=O)c6cc(NC(=O)c7nc(NC(=O)CCNC(=O)c8cc(NC(=O)c9nccn9C)cn8C)cn7C)cn6C)cn5C)cn4C)cn3C)CC2)c2cc(OC)c(OC)cc2n1` [Compound 191], which EC50 is on record?
Answer: > 500 nM

Question: Which EC50 does the source give for `COc1cc2nc(N3CCCCC3)nc(NC3CCN(CCOCCOCCOCCOCCOCCOCCOCCOCCOCCOCCNC(=O)CCNC(=O)c4nc(NC(=O)c5cc(NC(=O)CCNC(=O)c6nc(NC(=O)CCCNC(=O)c7cc(NC(=O)c8nc(NC(=O)CCNC(=O)c9cc(NC(=O)c%10nccn%10C)cn9C)cn8C)cn7C)cn6C)cn5C)cn4C)CC3)c2cc1OC` [Compound 193] here?
Answer: > 500 nM

Question: How did the EC50 turn out when `Cn1cc(NC(=O)c2nc(NC(=O)CCNC(=O)c3cc(NC(=O)c4nccn4C)cn3C)cn2C)cc1C(=O)NCCCC(=O)Nc1cn(C)c(C(=O)NCCC(=O)Nc2cc(C(=O)Nc3cn(C)c(C(=O)NCCC(=O)NCCOCCOCCOCCOCCOCCOCCOCCOCCOCCOCCN4CCC(C(=O)Nc5ncc(SCc6ncc(C(C)(C)C)o6)s5)CC4)n3)n(C)c2)n1` [Compound 17] was run?
Answer: > 500 nM
